How the values were obtained:
[1] = In vitro thrombus removal in cadaveric femoral arteries; conditions: 1% solution, approximately 60 cc per treatment over a 10 minute interval
Procedure: Fresh cadaveric femoral arteries which contained soft clots partially occluding the. vessel lumen were used. […] Vessels were treated with a 1% surfactant solution of sodium dodecyl sulfate (SDS, Sigma chemicals), prepared immediately prior to use. Treatment consisted of injection of surfactant through a 35 cc male luer syringe and flow characteristics recorded.

[2] = Solution containing surfactant and acid components, effect on cholesterol crystals; assay type: physicochemical; conditions: SDS 1%; combination with 0.1N HCl pH 1.0, isotonic (300 mOsmol)
Procedure: A solution of sodium dodecyl sulfate (SDS) (a.k.a. sodium lauryl sulfate) (1%) and 0.1N hydrochloric acid (pH 1.0) made isotonic (300 mOsmol) with sodium chloride was prepared and compared with a solution of sodium dodecyl sulfate solution (1%). […] This combination solution can be buffered with sodium bicarbonate (NaHCO3) in the same manner that the hydrochloric acid solution is buffered with NaHCO3, as described in the specification supra.

[3] = In vitro cholesterol dissolution; assay type: physicochemical; conditions: for effectiveness in solvating / dissolving crystalline cholesterol: 0.1 grams cholesterol in 50 mLs 1% surfactant solution; for cholesterol crystal presence or absence and crystal morphology (light microscopy): 0.1 grams cholesterol in 50 mLs surfactant solution, agitation up to 1 hour, 200x magnification, time as in value
Procedure: Dissolution of cholesterol was examined in different solutions of bile salts, non-ionic, and ionic surfactants. Solutions of bile salts were prepared as follows: 0.5% solutions of cholic, dehydrocholic, deoxycholic, lithocholic acids were made by dissolving 0.5 grams of the free acid powders in 100 mL H2O previously adjusted to pH=12 with sodium hydroxide. Solutions were then adjusted to pH=7.5 with HCl. 1% surfactant solutions were made by dilution of concentrated stock solutions: Benzalkonium chloride, nonoxynol-9, sodium dodecyl sulfate, were prepared immediately prior to use. Dissolution studies were performed by adding 0.1 grams cholesterol powdered crystals to 50 mLs of the above surfactants with agitation on a rocker table for 1 hour. Solutions were then examined under light microscopy 200× magnification and cholesterol crystal presence or absence and crystal morphology recorded for each solution.

Compound | flow through vessel after treatment [1] | removal of soft thrombus [1] | micelle formation around cholesterol crystals [2] | effectiveness in solvating / dissolving crystalline cholesterol [3] | cholesterol crystal presence or absence and crystal morphology (light microscopy) [3] | crystal dissolution ([3]; by 1 hour)
CCCCCCCCCCCCOS(=O)(=O)[O-].[Na+] [Sodium dodecyl sulfate, sodium dodecyl sulfate] | Flow was reestablished in all samples | effective in removing soft thrombus from occluded femoral arteries | formed micelles around cholesterol crystals making the cholesterol crystals water soluble | most effective in solvating | no free crystals were observed 5 minutes after cholesterol addition | –
Benzalkonium chloride | – | – | – | appeared to dissolve most of the crystalline cholesterol | still crystals apparent after 10 minutes | approximately 50%
nonoxynol-9 | – | – | – | – | little or no observable effect on the crystal structure | –
